Structures are written as SMILES. In brackets after ≈: the same amount, converted by molar mass.

MIC data for eight compounds are collected here from DBAASP.

Among the test systems are Escherichia coli 078; Escherichia coli K88; Escherichia coli K99; Escherichia coli UB1005.
Holding throughout (experiment): ≥ marks a high value that may be exact or a test limit, other limits are often not marked, values filed in µg/mL are converted to µM
The test system of assay [1] is Bacillus subtilis ATCC 6633.
For assay [2], the system named is Escherichia coli ATCC 15597.
Assay [3] deals with Klebsiella pneumoniae NCTC 5055.
In assay [4] the test system is Micrococcus luteus ATCC 49732.
For assay [5], the system named is Pseudomonas aeruginosa ATCC 27853.
The subject of assay [6] is Salmonella typhimurium DA6192.
Assay [7] has as its system Staphylococcus aureus ATCC 6538.
For assay [8], the system named is Staphylococcus aureus ATCC 25923.
The subject of assay [9] is Staphylococcus aureus ATCC 33591.
The subject of assay [10] is Staphylococcus epidermidis ATCC 35984.
Assay [11] deals with Candida albicans CGMCC 2.2086.
Assay [12] has as its system Candida parapsilosis CGMCC 2.3989.
In assay [13] the test system is Candida tropicalis CGMCC 2.1975.
The test system of assay [14] is Salmonella enterica subsp. enterica serovar Pullorum ATCC 7913.
Assay [15] relates to Salmonella enterica subsp. enterica serovar Typhimurium ATCC 14028.
The test system of assay [16] is Salmonella enterica subsp. enterica serovar Typhimurium C77-31.
Assay [17] concerns Staphylococcus aureus ATCC 29213.
Assay [18] deals with Staphylococcus aureus ATCC 43300.
For assay [19], the system named is Staphylococcus epidermidis ATCC 12228.
Assay [20] has as its system Candida albicans ATCC 10231.
Assay [21] concerns Cryptococcus neoformans ATCC 32045.
Assay [22] concerns Escherichia coli ATCC 2592.
For assay [23], the system named is Pseudomonas aeruginosa ATCC 10145.

With `CC[C@H](C)[C@H](N)C(=O)N[C@H](C(=O)N[C@@H](CCC(=O)O)C(=O)N[C@H](C(=O)N[C@H](C(=O)N[C@H](C(=O)N[C@H](C(=O)N[C@@H](CC(C)C)C(=O)N[C@@H](CC(C)C)C(=O)N[C@@H](CC(N)=O)C(=O)N[C@@H](CCCN=C(N)N)C(=O)N[C@@H](CC(C)C)C(=O)N[C@H](C(=O)N[C@@H](CC(=O)O)C(=O)N[C@@H](CCCN=C(N)N)C(=O)N[C@@H](CC(C)C)C(=O)N[C@@H](CCC(=O)O)C(=O)N[C@@H](CCCCN)C(=O)O)[C@@H](C)O)[C@@H](C)CC)[C@@H](C)O)[C@@H](C)CC)C(C)C)[C@@H](C)O` [ITEVITILLNRLTDRLEK], the MIC in assay [1] was not below 100 µM; in assay [2], not below 100 µM; in assay [3], not below 100 µM; in assay [4] it was not below 100 µM; in [5] it was more than 100 µM; in assay [6], not below 100 µM. Also, the MIC in assay [7] was more than 100 µM.
With `CC[C@H](C)[C@H](N)C(=O)NCC(=O)N[C@@H](CCCCN)C(=O)N[C@@H](Cc1ccccc1)C(=O)N[C@@H](CC(C)C)C(=O)N[C@@H](CCCCN)C(=O)N[C@@H](CCCCN)C(=O)N[C@@H](C)C(=O)N[C@@H](CCCCN)C(=O)N[C@@H](CCCCN)C(=O)N[C@@H](Cc1ccccc1)C(=O)NCC(=O)N[C@@H](CCCCN)C(=O)N[C@@H](C)C(=O)N[C@@H](Cc1ccccc1)C(=O)N[C@H](C(=O)N[C@@H](CCCCN)C(N)=O)C(C)C` [IGKFLKKAKKFGKAFVK], the MIC in [5] is 2.92 µM (≈ 5.65 µg/mL); in assay [8] it was more than 264 µM; in assay [9], not below 264 µM; in assay [10], 11.7 µM (≈ 22.6 µg/mL).
For the compound `CC[C@H](C)[C@H](N)C(=O)N[C@H](C(=O)N[C@@H](CCCCN)C(=O)N[C@H](C(=O)N[C@H](C(=O)N[C@H](C(=O)N[C@@H](CCCCN)C(=O)N[C@@H](CC(C)C)C(=O)N[C@@H](CC(C)C)C(=O)N[C@@H](CC(N)=O)C(=O)N[C@@H](CCCN=C(N)N)C(=O)N[C@@H](CC(C)C)C(=O)N[C@@H](CO)C(=O)N[C@@H](CCCCN)C(=O)N[C@H](C(=O)N[C@@H](CC(C)C)C(=O)N[C@@H](CO)C(=O)N[C@@H](CCCCN)C(=O)O)[C@@H](C)CC)[C@@H](C)O)[C@@H](C)CC)C(C)C)[C@@H](C)O` [ITKVITKLLNRLSKILSK], the minimal inhibitory concentration (MIC) in [1] came out at 4.2 µM (≈ 8.69 µg/mL); in assay [2] it was 2.8 µM (≈ 5.79 µg/mL); in [3], 25 µM (≈ 51.7 µg/mL); in assay [4], 1.05 µM (≈ 2.17 µg/mL); in [5] it was 2.08 µM (≈ 4.3 µg/mL); in assay [6], 16.7 µM (≈ 34.5 µg/mL). For the same compound, the MIC in [7] is more than 50 µM.
For the compound `CC[C@H](C)[C@H](NC(=O)[C@H](CCCCN)NC(=O)[C@H](C)NC(=O)[C@H](C)N)C(=O)N[C@H](C(=O)N[C@@H](CC(C)C)C(=O)N[C@@H](CC(N)=O)C(=O)N1CCC[C@H]1C(=O)N[C@@H](CCCCN)C(=O)N[C@@H](Cc1ccccc1)C(=O)N[C@@H](CCCN=C(N)N)C(=O)N[C@H]1CSSC[C@@H](C(N)=O)NC(=O)[C@H](Cc2ccccc2)NC(=O)[C@H](C)NC(=O)[C@H](C)NC(=O)[C@H](CCCCN)NC1=O)[C@@H](C)CC` [AAKIILNPKFRCKAAFC], the MIC is not below 128 µM in [11]; not below 128 µM in assay [12]; not below 128 µM in assay [13]; not below 128 µM with Escherichia coli 078; not below 32 µM against Escherichia coli K88; not below 32 µM in the assay on Escherichia coli K99. For the same compound, the minimal inhibitory concentration (MIC) against Escherichia coli UB1005 is not below 64 µM; in assay [5], more than 128 µM; in assay [14], not below 64 µM; in [15], 64 µM (≈ 121 µg/mL); in assay [16] it was not below 128 µM; in assay [8] it was 64 µM (≈ 121 µg/mL). Also, the minimal inhibitory concentration (MIC) in assay [17], in assay [18] and in [19] was more than 128 µM throughout.
`CC(C)C[C@H](NC(=O)[C@H](CCCCN)NC(=O)[C@H](CC(C)C)NC(=O)[C@H](CCCCN)NC(=O)[C@H](CC(C)C)NC(=O)[C@H](CCCCN)NC(=O)[C@H](CC(C)C)NC(=O)[C@H](CCCCN)NC(=O)[C@H](CC(C)C)NC(=O)[C@H](CCCCN)NC(=O)[C@H](CC(C)C)NC(=O)[C@H](CCCCN)NC(=O)[C@H](CC(C)C)NC(=O)[C@H](CCCCN)NC(=O)[C@H](CC(C)C)NC(=O)[C@H](CCCCN)NC(=O)[C@H](CC(C)C)NC(=O)[C@H](CCCCN)NC(=O)[C@H](CC(C)C)NC(=O)[C@H](CCCCN)NC(=O)[C@H](CC(C)C)NC(=O)[C@H](CCCCN)NC(=O)[C@@H](N)CC(C)C)C(=O)N[C@@H](CCCCN)C(=O)O` [LKLKLKLKLKLKLKLKLKLKLKLK]: the MIC in assay [20] is 121 µM (≈ 354 µg/mL); in assay [21], 15.3 µM (≈ 44.5 µg/mL); in assay [22] it was 30.2 µM (≈ 88 µg/mL); in assay [23] it was 15.4 µM (≈ 45 µg/mL); in assay [9] it was not below 85.8 µM.
With `CC[C@H](C)[C@H](NC(=O)[C@H](CCCN=C(N)N)NC(=O)[C@H](C)NC(=O)[C@H](C)N)C(=O)N[C@H](C(=O)N[C@@H](CC(C)C)C(=O)N[C@@H](CCCN=C(N)N)C(=O)N1CCC[C@H]1C(=O)N[C@@H](CCCN=C(N)N)C(=O)N[C@@H](Cc1ccccc1)C(=O)N[C@@H](CCCN=C(N)N)C(N)=O)[C@@H](C)CC` [AARIILRPRFR], the minimum inhibitory concentration (MIC) was not below 128 µM in assay [11]; not below 128 µM in assay [12]; not below 128 µM in assay [13]; 8 µM (≈ 10.9 µg/mL) in the assay with Escherichia coli 078; 16 µM (≈ 21.9 µg/mL) against Escherichia coli K88; 16 µM (≈ 21.9 µg/mL) in the assay on Escherichia coli K99. The MIC against Escherichia coli UB1005 is 8 µM (≈ 10.9 µg/mL); in assay [5], more than 128 µM; in [14], 16 µM (≈ 21.9 µg/mL); in [15], 16 µM (≈ 21.9 µg/mL); in [16], 16 µM (≈ 21.9 µg/mL); in assay [8], more than 128 µM. Moreover, the MIC in assay [17], in assay [18] and in [19] was more than 128 µM each time.
In the case of `C[C@H](NC(=O)[C@H](Cc1ccccc1)NC(=O)[C@H](CCCCN)NC(=O)[C@H](Cc1ccccc1)NC(=O)[C@H](C)NC(=O)[C@H](Cc1ccccc1)NC(=O)[C@H](CCCCN)NC(=O)[C@H](Cc1ccccc1)NC(=O)[C@H](C)NC(=O)[C@H](Cc1ccccc1)NC(=O)[C@H](CCCCN)NC(=O)[C@H](Cc1ccccc1)NC(=O)[C@H](C)NC(=O)[C@H](Cc1ccccc1)NC(=O)[C@H](CCCCN)NC(=O)[C@H](Cc1ccccc1)NC(=O)[C@H](C)NC(=O)[C@H](Cc1ccccc1)NC(=O)[C@H](CCCCN)NC(=O)[C@H](Cc1ccccc1)NC(=O)[C@H](C)NC(=O)[C@H](Cc1ccccc1)NC(=O)[C@H](CCCCN)NC(=O)[C@H](Cc1ccccc1)NC(=O)[C@H](C)NC(=O)[C@H](Cc1ccccc1)NC(=O)[C@@H](N)CCCCN)C(=O)N[C@@H](Cc1ccccc1)C(=O)O` [KFAFKFAFKFAFKFAFKFAFKFAFKFAF], the MIC in assay [20] is more than 144 µM; in assay [21] it was not below 50.9 µM; in assay [22] it was not below 288 µM; in assay [23] it was not below 72 µM; in assay [9], not below 144 µM.
On to `C[C@H](NC(=O)[C@H](Cc1ccccc1)NC(=O)[C@H](CCCCN)NC(=O)[C@H](CCCCN)NC(=O)[C@H](C)NC(=O)[C@H](Cc1ccccc1)NC(=O)[C@H](CCCCN)NC(=O)[C@H](CCCCN)NC(=O)[C@H](C)NC(=O)[C@H](Cc1ccccc1)NC(=O)[C@H](CCCCN)NC(=O)[C@H](CCCCN)NC(=O)[C@H](C)NC(=O)[C@H](Cc1ccccc1)NC(=O)[C@@H](N)CCCCN)C(=O)N[C@@H](CCCCN)C(=O)O` [KFAKKFAKKFAKKFAK], for which the MIC is 55.3 µM (≈ 106 µg/mL) in assay [20]; 3.62 µM (≈ 6.93 µg/mL) in assay [21]; not below 45.9 µM in assay [22]; not below 65.2 µM in [23]; not below 130 µM in assay [9].

What is called MIC is the lowest concentration found to suppress growth. The low end stands for inhibition by little substance, the high end for a need for much substance.
